According to US10155802B2, “Locally-active anticoagulants and anti-inflammatory agents” (priority 2011, dated 2018):

Tested on: human coagulation proteome
Experiment: Synthetic coagulation proteome assay (thrombin generation)
Type: biochemical
Procedure: This assay is carried out using an established protocol as described previously (Brummel-Ziedens 2008). Briefly, a pro-cofactor solution containing re-lipidated tissue factor (10 pM; molar ratio PCPS:TF=5000) was incubated with 4 μM PCPS in HBS (20 mM HEPES and 150 mM NaCl at pH 7.4) and 2 mM CaCl2 for 8 min at 37° C. Factor V (40 nM) and Factor VIII (1.4 nM) were then added to the mixture prior to initiation of the reaction to activate the protease zymogens in the blood coagulation cascade. The activation reaction was initiated by addition of the pro-cofactor solution to a zymogen solution containing prothrombin (2.8 μM), Factor VII (20 nM), Factor Vila (0.2 nM), FX (340 nM), Factor IX (180 nM), Factor XI (60 nM), TFPI (5 nM), antithrombin III (6.8 μM) […]
At selected time points after initiation of the reaction, 10 μL aliquots were withdrawn from the reaction mixture and quenched in 20 mM EDTA in HBS (pH 7.4) containing 0.2 mM Spectrozyme™ TH and assayed immediately for the proteolytic activity of thrombin. The hydrolysis of Spectrozyme™ TH was monitored by the change in absorbance at 405 nm using a SpectraMax™ plate reader (Molecular Devices Corp., Menlo Park, Calif., USA). Concentration of thrombin generated by the reaction was calculated from a standard curve prepared by serial dilutions of known concentrations of α-thrombin using the fibrinogen clotting assay (DiMaio 1990). Fibrinogen solution was freshly prepared by dissolving about 0.5% (w/v) fibrinogen in 50 mM Tris-HCl, 100 mM NaCl, 0.1% PEG-8000, pH 7.6 and filtering the resulting solution through a hydrophilic membrane of 0.45 μm polyvinylidene fluoride (PVDF) with low protein binding. The concentration of fibrinogen after filtration was determined by using the extinction coefficient of 15.0 for 1% fibrinogen at 280 nm. […] Thrombin-induced clotting of fibrinogen was followed at 25° C. by measuring the optical absorbance at 420 nm. The clotting time was obtained from extrapolation of the slope at the point of inflection to the zero absorbance baseline. […]

Structure (SMILES): CC[C@H](C)[C@H](N)C(=O)N[C@@H](CCCNC(=N)N)C(=O)N[C@@H](Cc1ccccc1)C(=O)N[C@H](C(=O)N[C@@H](CC(=O)O)C(=O)NCC(=O)N[C@@H](CCC(=O)O)C(=O)N[C@@H](Cc1c[nH]c2ccccc12)C(=O)N[C@H](C(=O)N[C@@H](Cc1c[nH]c2ccccc12)C(=O)N[C@@H](CC(=O)O)C(=O)N[C@@H](CC(=O)O)C(=O)N[C@@H](C)C(=O)N[C@H](C(=O)N[C@@H](CCCCN)C(=O)N[C@H](C(=O)N[C@@H](Cc1c[nH]c2ccccc12)C(=O)N[C@H](C(=O)N[C@@H](Cc1c[nH]c2ccccc12)C(=O)N[C@H](C(=O)N[C@@H](CCC(=O)O)C(=O)NCC(=O)N[C@@H](CC(=O)O)C(=O)N[C@@H](Cc1ccccc1)C(=O)N[C@@H](CCC(=O)O)C(=O)N[C@@H](CCC(=O)O)C(=O)N[C@H](C(=O)N1CCC[C@H]1C(=O)N[C@@H](CCC(=O)O)C(=O)N[C@@H](CCC(=O)O)C(=O)N[C@@H](Cc1ccc(O)cc1)C(=O)N[C@@H](CC(C)C)C(=O)N[C@@H](CCC(N)=O)C(=O)O)[C@@H](C)CC)[C@@H](C)O)[C@@H](C)O)[C@@H](C)O)[C@@H](C)O)[C@@H](C)O)[C@@H](C)O [MH2-wZIP4]
- delay of thrombin burst / onset of thrombin generation (37° C.): very little delay in the onset of thrombin generation
- delay of onset of thrombin generation with increase of bulk temperature (42° C. versus 37° C.): delaying effect is increased somewhat
